Assay results reported in PubChem BioAssay AID330 (DTP/NCI, 2004).
Several values for one entry are separate records, joined by “and”; a condition that tells them apart may be missing. Equal values may be shown once. Inconclusive results and toxic doses are left out. How the source made its calls: active means survival T/C of 150% or more; inactive means T/C below 125% in these data.

Tested on: P388 leukemia ip, CD2F1 mice, survival T/C
Assay: NCI In Vivo Anticancer Drug Screen. Data for tumor model P388 Leukemia (intraperitoneal) in CD2F1 (CDF1) mice
Conditions: endpoint: median survival time, higher = longer survival
Summary of the method: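 Mice carrying the transplanted tumor received test compound or vehicle. Survival was recorded in each group, and the value is the treated-group measurement divided by that of the vehicle-treated control group.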

[1] = dose: 100.0 mg/kg/injection, schedule: Q04DX002 (ip), vehicle: saline with Tween-80
[2] = dose: 60.0 mg/kg/injection, schedule: Q01DX005 (ip), vehicle: Klucel (hydroxypropylcellulose) (HPC)
[3] = dose: 120.0 mg/kg/injection, schedule: Q01DX005 (ip), vehicle: Klucel (hydroxypropylcellulose) (HPC)

Measured: T/C

Nc1cccc(CCCCc2cccc(S(=O)(=O)F)c2)c1
inactive: dose: 50.0 mg/kg/injection, schedule: Q01DX009 (ip), vehicle: saline sonified 100 % of control | dose: 100.0 mg/kg/injection, schedule: Q01DX009 (ip), vehicle: saline sonified 109 % of control | dose: 200.0 mg/kg/injection, schedule: Q01DX009 (ip), vehicle: saline sonified 109 % of control

O=c1c(-c2cccc(O)c2O)coc2cc(OC3OC(CO)C(O)C(O)C3O)ccc12 (stereo unspecified)
inactive: dose: 60.0 mg/kg/injection, schedule: Q01DX005 (ip), vehicle: saline with Tween-80 100 % of control | dose: 120.0 mg/kg/injection, schedule: Q01DX005 (ip), vehicle: saline with Tween-80 100 % of control | dose: 240.0 mg/kg/injection, schedule: Q01DX005 (ip), vehicle: saline with Tween-80 97 % of control

CC(C)=CCC(OC(=O)C=C(C)C)c1cc(O)c2c(O)ccc(O)c2c1O.[Ni] (stereo unspecified)
inactive: [1] 111 % of control | dose: 200.0 mg/kg/injection, schedule: Q04DX002 (ip), vehicle: saline with Tween-80 105 % of control | dose: 400.0 mg/kg/injection, schedule: Q04DX002 (ip), vehicle: saline with Tween-80 114 % of control

COc1ccc(/C=N\N=C(/[O-])c2ccc(Cl)cc2)cc1.COc1ccc(/C=N\N=C(/[O-])c2ccc(Cl)cc2)cc1.[Ni+2].[OH3+].[OH3+]
inactive: [1] 92 % of control

CCN=C(c1ccc(NC(=O)c2ccc(C(=O)Nc3ccc(C(=NCC)N(CC)CC)cc3)c(Cl)c2)cc1)N(CC)CC
inactive: dose: 0.05 mg/kg/injection, schedule: Q01DX005 (ip), vehicle: saline 104 % of control | dose: 0.09 mg/kg/injection, schedule: Q01DX005 (ip), vehicle: saline 87 % of control | dose: 0.19 mg/kg/injection, schedule: Q01DX005 (ip), vehicle: saline 97 % of control | dose: 0.39 mg/kg/injection, schedule: Q01DX005 (ip), vehicle: saline 102 % of control and 97 % of control

COC(=O)C(NC(=O)C(NC(=O)c1c2nc3c(C(=O)NC(C(=O)NC(C(=O)OC)C(C)C)C(C)OC(C)=O)ccc(C)c3oc-2c(C)c(=O)c1N)C(C)OC(C)=O)C(C)C (stereo unspecified)
inactive: dose: 0.05 mg/kg/injection, schedule: Q01DX009 (ip), vehicle: water 107 % of control | dose: 0.1 mg/kg/injection, schedule: Q01DX009 (ip), vehicle: water 107 % of control | dose: 0.2 mg/kg/injection, schedule: Q01DX009 (ip), vehicle: water 100 % of control | dose: 0.4 mg/kg/injection, schedule: Q01DX009 (ip), vehicle: water 97 % of control | dose: 0.8 mg/kg/injection, schedule: Q01DX009 (ip), vehicle: water 100 % of control | dose: 1.6 mg/kg/injection, schedule: Q01DX009 (ip), vehicle: water 100 % of control and 88 % of control | dose: 3.2 mg/kg/injection, schedule: Q01DX009 (ip), vehicle: water 97 % of control | dose: 6.4 mg/kg/injection, schedule: Q01DX009 (ip), vehicle: water 97 % of control | dose: 12.8 mg/kg/injection, schedule: Q01DX009 (ip), vehicle: water 92 % of control

NC(=O)N/N=C1/CCCCCC1(c1ccccc1)c1ccccc1
inactive: dose: 30.0 mg/kg/injection, schedule: Q01DX005 (ip), vehicle: Klucel (hydroxypropylcellulose) (HPC) 95 % of control | [2] 89 % of control | [3] 91 % of control

COC(=O)c1nc(=S)[nH]c(C(=O)OC)c1C(=O)c1ccc([N+](=O)[O-])cc1
inactive: [2] 101 % of control | [3] 95 % of control | dose: 240.0 mg/kg/injection, schedule: Q01DX005 (ip), vehicle: Klucel (hydroxypropylcellulose) (HPC) 91 % of control

CC1=C(C)CP(=O)(c2ccccc2)C1
inactive: dose: 25.0 mg/kg/injection, schedule: Q01DX009 (ip), vehicle: saline 96 % of control | dose: 50.0 mg/kg/injection, schedule: Q01DX009 (ip), vehicle: saline 93 % of control | dose: 100.0 mg/kg/injection, schedule: Q01DX009 (ip), vehicle: saline 95 % of control | dose: 200.0 mg/kg/injection, schedule: Q01DX009 (ip), vehicle: saline 95 % of control

CC1(CBr)C2CCC1C(=O)C2 (stereo unspecified)
inactive: dose: 6.25 mg/kg/injection, schedule: Q01DX005 (ip), vehicle: saline with Tween-80 100 % of control | dose: 12.5 mg/kg/injection, schedule: Q01DX005 (ip), vehicle: saline with Tween-80 96 % of control | dose: 25.0 mg/kg/injection, schedule: Q01DX005 (ip), vehicle: saline with Tween-80 96 % of control
